Source: ChEMBL document CHEMBL1201862, “PubChem BioAssay data set” (2004)
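Five concentrations, 48 hours, 96-well plates. GI50 is the concentration that inhibits growth by half.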 The source made the active and inactive calls. Cut-off read from the data, not from the text of the source: active = GI50 up to about 1.1 µM and inactive = higher.

How the values were obtained:
Test in all cases: NCI anticancer screen, dose series, 48 h
OVCAR-8 = system: OVCAR-8
SF-539 = system: SF-539
TK-10 = system: TK-10
SNB-75 = system: SNB-75
SF-295 = system: SF-295
Malme-3M = system: Malme-3M
UO-31 = system: UO-31
SF-268 = system: SF-268
IGROV-1 = system: IGROV-1
UACC-257 = system: UACC-257
HCT-15 = system: HCT-15
NCI-H23 = system: NCI-H23
HOP-62 = system: HOP-62
NCI-H522 = system: NCI-H522
A498 = system: A498
LOX IMVI = system: LOX IMVI
Hs-578T = system: Hs-578T
SR = system: SR

Measured: GI50

COc1ccc(-c2cc(Cc3cccs3)c(=O)[nH]n2)cc1
inactive: OVCAR-8 > 100 µM | SF-539 > 100 µM | TK-10 > 100 µM | SNB-75 29.5 µM | SF-295 > 100 µM | Malme-3M > 100 µM | UO-31 82 µM | SF-268 > 100 µM | IGROV-1 > 100 µM | UACC-257 42.3 µM | NCI-H23 56.8 µM
49 µM: HCT-15

CC(=O)Oc1c(C)cc2c(c1C)C(C)CN2C(C)=O (stereo not drawn)
inactive: HOP-62 > 100 µM | OVCAR-8 > 100 µM | SF-539 > 100 µM | TK-10 > 100 µM | NCI-H522 > 100 µM | A498 > 100 µM | SNB-75 94.2 µM | SF-295 > 100 µM | UO-31 > 100 µM | SF-268 > 100 µM | LOX IMVI > 100 µM | IGROV-1 > 100 µM | UACC-257 > 100 µM | Hs-578T > 100 µM | NCI-H23 > 100 µM
> 100 µM: HCT-15

COc1ccc2c(CCNS(=O)(=O)c3ccccc3)c(C(C)=O)[nH]c2c1[N+](=O)[O-]
> 100 µM: HCT-15
inactive: HOP-62 86.7 µM | OVCAR-8 65.2 µM | SF-539 31.8 µM | NCI-H522 > 100 µM | SR > 100 µM | A498 > 100 µM | SF-295 63.7 µM | UO-31 > 100 µM | SF-268 53.3 µM | LOX IMVI > 100 µM | IGROV-1 > 100 µM | UACC-257 > 100 µM | NCI-H23 > 100 µM

CC(=O)OCC1OC(O[C@@H]2C[C@H]3C(C)(C)[C@H](OC(C)=O)CC[C@]3(C)[C@H]3CC[C@]4(C)C(=CC[C@H]4[C@@H](C)C[C@@H](O)[C@H](O)C(C)(C)O)[C@@]32C)C(O)C(O)C1O (stereo partly drawn)
inactive: HOP-62 15.8 µM | OVCAR-8 17.3 µM | SF-539 16.4 µM | TK-10 17 µM | NCI-H522 1.67 µM | SR 16.3 µM | A498 19.9 µM | SNB-75 22 µM | SF-295 18.7 µM | Malme-3M 17.8 µM | UO-31 17.4 µM | SF-268 15.8 µM | LOX IMVI 16.2 µM | IGROV-1 18.6 µM | UACC-257 19 µM | NCI-H23 18.6 µM
17.3 µM: HCT-15

O=C(C=P(c1ccccc1)(c1ccccc1)c1ccccc1)c1ccc(-c2cccc([N+](=O)[O-])c2)cc1
inactive: HOP-62 5.86 µM | SF-539 4.46 µM | TK-10 3.23 µM | SR 3.69 µM | A498 3.02 µM | SNB-75 2.29 µM | SF-295 3.6 µM | Malme-3M 3.48 µM | UO-31 2.09 µM | SF-268 4.65 µM | LOX IMVI 2.11 µM | UACC-257 3.27 µM | Hs-578T 4.9 µM | NCI-H23 4.36 µM
3.94 µM: HCT-15

O=c1ccn2n1Cc1ccccc1C2
> 100 µM: HCT-15
inactive: HOP-62 > 100 µM | OVCAR-8 > 100 µM | SF-539 > 100 µM | TK-10 > 100 µM | NCI-H522 > 100 µM | SR > 100 µM | A498 > 100 µM | SF-295 > 100 µM | Malme-3M > 100 µM | UO-31 79.8 µM | SF-268 > 100 µM | LOX IMVI > 100 µM | IGROV-1 > 100 µM | UACC-257 > 100 µM | Hs-578T > 100 µM | NCI-H23 > 100 µM

[N-]=[N+]=CC(=O)C1(C(=O)C=[N+]=[N-])CC1
> 100 µM: HCT-15
inactive: HOP-62 > 100 µM | OVCAR-8 > 100 µM | SF-539 > 100 µM | TK-10 > 100 µM | NCI-H522 > 100 µM | SR > 100 µM | A498 > 100 µM | SNB-75 > 100 µM | SF-295 > 100 µM | Malme-3M > 100 µM | UO-31 > 100 µM | SF-268 > 100 µM | LOX IMVI > 100 µM | IGROV-1 > 100 µM | UACC-257 > 100 µM | NCI-H23 > 100 µM
